The first assay has as its system purified human Hsp90. Description: Binding Assay: fluorescence polarization with BODIPY-labeled geldanamycin. The following applies: 5 μM compound, BODIPY-GM 10 nM, Hsp90 30 nM. A digest of the protocol: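 Compounds in 2% DMSO final compete with 10 nM BODIPY-GM for 30 nM purified human Hsp90, incubated overnight at room temperature in pH 7.3 HEPES buffer containing Na2MoO4 and DTT. Polarization (mP, ex/em 485/530) normalized to DMSO gives percent inhibition; autofluorescence-confounded data excluded.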
As for `CC(C)(C)OC(=O)N1CC[C@H](CCn2cnc(N)c3nc(Sc4cc5c(cc4Br)OCO5)nc2-3)C1` [Example 420, tert-Butyl (3S)-3-(2-{6-amino-8-[(6-bromo-1,3-benzodioxol-5-yl)thio]-3 H-purin-3-yl}ethyl)pyrrolidine-1-carboxylate], the % Inhibition (in general, the share of the control response that was lost under treatment) at 5 μM Compound Concentration is 7%. Regarding `Nc1ncn(CCC2CCCN2C(=O)OCc2ccccc2)c2nc(Sc3cc4c(cc3Br)OCO4)nc1-2` (stereo not shown) [Example 421, Benzyl 2-(2-{6-amino-8-[(6-bromo-1,3-benzodioxol-5-yl)thio]-3H-purin-3-yl}ethyl)pyrrolidine-1-carboxylate], the “% Inhibition at 5 μM Compound Concentration” value (shortened to “% Inhibition”) turned out to be 28%.

In the case of `Nc1ncn(CCC2=CCN(Cc3ccccc3)CC2)c2nc(Sc3cc4c(cc3Br)OCO4)nc1-2` [Example 425, 3-[2-(1-Benzyl-1,2,3,6-tetrahydropyridin-4-yl)ethyl]-8-[(6-bromo-1,3-benzodioxol-5-yl)thio]-3H-purin-6-amine], the “% Inhibition” value is 6%.

With `CN1C2CCC1CC(CCn1cnc(N)c3nc(Sc4cc5c(cc4Br)OCO5)nc1-3)C2` (stereo not drawn) [Example 427, 8-[(6-Bromo-1,3-benzodioxol-5-yl)thio]-3-{2-[(3-endo)-8-methyl-8-azabicyclo[3.2.1]oct-3-yl]ethyl}-3H-purin-6-amine], the “% Inhibition” value is recorded as 32%. As to `CC(C)NC(=O)N1CCC(CCn2cnc(N)c3nc(Sc4cc5c(cc4Br)OCO5)nc2-3)CC1` [Example 439, 4-(2-{6-Amino-8-[(6-bromo-1,3-benzodioxol-5-yl)thio]-3H-purin-3-yl}ethyl)-N-isopropylpiperidine-1-carboxamide], the “% Inhibition” value turned out to be 24%. In the case of `CCNC(=O)N1CCCC(CCn2cnc(N)c3nc(Sc4cc5c(cc4Br)OCO5)nc2-3)C1` (stereo not shown) [Example 440, 3-(2-{6-Amino-8-[(6-bromo-1,3-benzodioxol-5-yl)thio]-3H-purin-3-yl}ethyl)-N-ethylpiperidine-1-carboxamide], the “% Inhibition” value turned out to be 60%.

As to `CC(C)NC(=O)N1CCCC(CCn2cnc(N)c3nc(Sc4cc5c(cc4Br)OCO5)nc2-3)C1` (stereo not shown) [Example 441, 3-(2-{6-Amino-8-[(6-bromo-1,3-benzodioxol-5-yl)thio]-3H-purin-3-yl}ethyl)-N-isopropylpiperidine-1-carboxamide], the “% Inhibition” value was found to be 45%. Regarding `CC(C)(C)NC(=O)N1CCCC(CCn2cnc(N)c3nc(Sc4cc5c(cc4Br)OCO5)nc2-3)C1` (stereo not shown) [Example 442, 3-(2-{6-Amino-8-[(6-bromo-1,3-benzodioxol-5-yl)thio]-3H-purin-3-yl}ethyl)-N-(tert-butyl)piperidine-1-carboxamide], the “% Inhibition” value stood at 4%.

Turning to `CCOC(=O)CNC(=O)N1CCC(CCn2cnc(N)c3nc(Sc4cc5c(cc4Br)OCO5)nc2-3)CC1` [Example 443, Ethyl N-{[4-(2-{6-amino-8-[(6-bromo-1,3-benzodioxol-5-yl)thio]-3H-purin-3-yl}ethyl)piperidin-1-yl]carbonyl}glycinate], the “% Inhibition” value is 36%. Same read-out and setting: under `CC(C)N1CCCCC1CCn1cnc(N)c2nc(Sc3cc4c(cc3Br)OCO4)nc1-2` (stereo not shown) [Example 446, 8-[(6-Bromo-1,3-benzodioxol-5-yl)thio]-3-[2-(1-isopropylpiperidin-2-yl)ethyl]-3H-purin-6-amine] stands 4%; under `CC(C)CN1CCCCC1CCn1cnc(N)c2nc(Sc3cc4c(cc3Br)OCO4)nc1-2` (stereo not shown) [Example 448, 8-[(6-Bromo-1,3-benzodioxol-5-yl)thio]-3-[2-(1-isobutylpiperidin-2-yl)ethyl]-3H-purin-6-amine], 45%; under `CC(C)(C)C(=O)N1CCCC(CCn2cnc(N)c3nc(Sc4cc5c(cc4Br)OCO5)nc2-3)C1` (stereo not shown) [Example 450, 8-[(6-Bromo-1,3-benzodioxol-5-yl)thio]-3-{2-[1-(2,2-dimethylpropanoyl)piperidin-3-yl]ethyl}-3H-purin-6-amine], 57%. The same measure, in the same setting: under `CC(C)(C)C(=O)N1CCC(CCn2cnc(N)c3nc(Sc4cc5c(cc4Br)OCO5)nc2-3)CC1` [Example 452, 8-[(6-Bromo-1,3-benzodioxol-5-yl)thio]-3-{2-[1-(2,2-dimethylpropanoyl)piperidin-4-yl]ethyl}-3H-purin-6-amine] stands 21%.

Still in this assay, the particulars now being: BODIPY-GM 10 nM, Hsp90 30 nM.
Regarding `CC(C)(C)OC(=O)N1CC[C@H](CCn2c(Sc3cc4c(cc3Br)OCO4)nc3c(N)ncnc32)C1` [Example 418, tert-Butyl (3R)-3-(2-{6-amino-8-[(6-bromo-1,3-benzodioxol-5-yl)thio]-9H-purin-9-yl}ethyl)pyrrolidine-1-carboxylate], the half-maximal inhibitory concentration (IC50) (commonly the midpoint of a concentration-inhibition curve) was found to be 300 nM. In the case of `Nc1ncnc2c1nc(Sc1cc3c(cc1Br)OCO3)n2CCC1CCCN1C(=O)OCc1ccccc1` (stereo not shown) [Example 419, Benzyl 2-(2-{6-amino-8-[(6-bromo-1,3-benzodioxol-5-yl)thio]-9H-purin-9-yl}ethyl)pyrrolidine-1-carboxylate], the IC50 was 2900 nM. Still for that read-out and setting: under `CN1[C@@H]2CC[C@H]1C[C@@H](CCn1c(Sc3cc4c(cc3Br)OCO4)nc3c(N)ncnc31)C2` [Example 426, 8-[(6-Bromo-1,3-benzodioxol-5-yl)thio]-9-{2-[(3-endo)-8-methyl-8-azabicyclo[3.2.1]oct-3-yl]ethyl}-9H-purin-6-amine] stands 150 nM; under `CCNC(=O)N1CCC(CCn2c(Sc3cc4c(cc3Br)OCO4)nc3c(N)ncnc32)CC1` [Example 431, 4-(2-{6-Amino-8-[(6-bromo-1,3-benzodioxol-5-yl)thio]-9H-purin-9-yl}ethyl)-N-ethylpiperidine-1-carboxamide], 130 nM.

On to `CC(C)NC(=O)N1CCC(CCn2c(Sc3cc4c(cc3Br)OCO4)nc3c(N)ncnc32)CC1` [Example 432, 4-(2-{6-Amino-8-[(6-bromo-1,3-benzodioxol-5-yl)thio]-9H-purin-9-yl}ethyl)-N-isopropylpiperidine-1-carboxamide], for which the IC50 is 65 nM. The same measure, in the same setting: then `CC(C)(C)NC(=O)N1CCC(CCn2c(Sc3cc4c(cc3Br)OCO4)nc3c(N)ncnc32)CC1` [Example 433, 4-(2-{6-Amino-8-[(6-bromo-1,3-benzodioxol-5-yl)thio]-9H-purin-9-yl}ethyl)-N-(tert-butyl)piperidine-1-carboxamide], with 125 nM; and `CCOC(=O)CNC(=O)N1CCC(CCn2c(Sc3cc4c(cc3Br)OCO4)nc3c(N)ncnc32)CC1` [Example 434, Ethyl N-{[4-(2-{6-amino-8-[(6-bromo-1,3-benzodioxol-5-yl)thio]-9H-purin-9-yl}ethyl)piperidin-1-yl]carbonyl}glycinate], with 37 nM; and `CCNC(=O)N1CCCC(CCn2c(Sc3cc4c(cc3Br)OCO4)nc3c(N)ncnc32)C1` (stereo not shown) [Example 435, 3-(2-{6-Amino-8-[(6-bromo-1,3-benzodioxol-5-yl)thio]-9H-purin-9-yl}ethyl)-N-ethylpiperidine-1-carboxamide], with 195 nM. Same read-out and setting: under `CC(C)NC(=O)N1CCCC(CCn2c(Sc3cc4c(cc3Br)OCO4)nc3c(N)ncnc32)C1` (stereo not shown) [Example 436, 3-(2-{6-Amino-8-[(6-bromo-1,3-benzodioxol-5-yl)thio]-9H-purin-9-yl}ethyl)-N-isopropylpiperidine-1-carboxamide] stands 390 nM; under `CC(C)(C)NC(=O)N1CCCC(CCn2c(Sc3cc4c(cc3Br)OCO4)nc3c(N)ncnc32)C1` (stereo not shown) [Example 437, 3-(2-{6-Amino-8-[(6-bromo-1,3-benzodioxol-5-yl)thio]-9H-purin-9-yl}ethyl)-N-(tert-butyl)piperidine-1-carboxamide], 390 nM. Still for that read-out and setting: then `COc1ccc(OC)c(Sc2nc3c(N)ncnc3n2CCN2CCN(C(=O)C(C)(C)C)CC2)c1` [Example 444, 8-[(2,5-Dimethoxyphenyl)thio]-9-{2-[4-(2,2-dimethylpropanoyl)piperazin-1-yl]ethyl}-9H-purin-6-amine], with 1100 nM.

Take `CC(C)N1CCCCC1CCn1c(Sc2cc3c(cc2Br)OCO3)nc2c(N)ncnc21` (stereo not shown) [Example 445, 8-[(6-Bromo-1,3-benzodioxol-5-yl)thio]-9-[2-(1-isopropylpiperidin-2-yl)ethyl]-9H-purin-6-amine]: the IC50 was found to be 305 nM. For the compound `CC(C)CN1CCCCC1CCn1c(Sc2cc3c(cc2Br)OCO3)nc2c(N)ncnc21` (stereo not shown) [Example 447, 8-[(6-Bromo-1,3-benzodioxol-5-yl)thio]-9-[2-(1-isobutylpiperidin-2-yl)ethyl]-9H-purin-6-amine], the IC50 is 210 nM. On to `CC(C)(C)C(=O)N1CCCC(CCn2c(Sc3cc4c(cc3Br)OCO4)nc3c(N)ncnc32)C1` (stereo not shown) [Example 449, 8-[(6-Bromo-1,3-benzodioxol-5-yl)thio]-9-{2-[1-(2,2-dimethylpropanoyl)piperidin-3-yl]ethyl}-9H-purin-6-amine], for which the IC50 came out at 200 nM.

`CC(C)(C)C(=O)N1CCC(CCn2c(Sc3cc4c(cc3Br)OCO4)nc3c(N)ncnc32)CC1` [Example 451, 8-[(6-Bromo-1,3-benzodioxol-5-yl)thio]-9-{2-[1-(2,2-dimethylpropanoyl)piperidin-4-yl]ethyl}-9H-purin-6-amine] returned a concentration for half-maximal inhibition (IC50) of 195 nM. Regarding `CC(C)CN1CCC(CCn2c(Sc3cc4c(cc3Br)OCO4)nc3c(N)ncnc32)CC1` [Example 453, 8-[(6-Bromo-1,3-benzodioxol-5-yl)thio]-9-[2-(1-isobutylpiperidin-4-yl)ethyl]-9H-purin-6-amine], the IC50 stood at 700 nM. Turning to `CC(C)(C)CC(=O)N1CCCC(CCn2c(Sc3cc4c(cc3Br)OCO4)nc3c(N)ncnc32)C1` (stereo not shown) [Example 454, 8-[(6-Bromo-1,3-benzodioxol-5-yl)thio]-9-{2-[1-(3,3-dimethylbutanoyl)piperidin-3-yl]ethyl}-9H-purin-6-amine], the IC50 was 305 nM.

Regarding `CC(C)(C)OC(=O)N[C@H]1CC[C@H](CCn2c(Sc3cc4c(cc3Br)OCO4)nc3c(N)ncnc32)CC1` [Example 455, tert-Butyl [trans-4-(2-{6-amino-8-[(6-bromo-1,3-benzodioxol-5-yl)thio]-9H-purin-9-yl}ethyl)cyclohexyl]carbamate], the IC50 is 60 nM.

Values taken from US7595401B2, “Therapeutic compounds and their use in cancer” (Myriad Pharmaceuticals, Inc., priority 2006, dated 2009).
